In data set [1] the target is T1, Arachidonate 5-lipoxygenase-activating protein (Homo sapiens, UniProt P20292).
T1 sequence (P20292 whole entry): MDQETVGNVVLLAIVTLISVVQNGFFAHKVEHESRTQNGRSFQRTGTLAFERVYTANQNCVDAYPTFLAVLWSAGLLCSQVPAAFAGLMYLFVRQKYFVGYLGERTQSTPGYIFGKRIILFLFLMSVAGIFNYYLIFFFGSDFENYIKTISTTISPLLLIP
Put plainly: Inhibition of 5-lipoxygenase-activating protein in human polymorphonuclear cells assessed as inhibition of calcium ionophore-induced LTB4 production in presence of human whole blood. It counts as tissue-based.

The target of data set [2] is T1, Arachidonate 5-lipoxygenase-activating protein. Description: Displacement of [125I]L-691,831 from 5-lipoxygenase-activating protein in human polymorphonuclear cells.
Data set [3] deals with Rattus norvegicus. Put plainly: Dose normalised AUC in Sprague-Dawley rat at 1 mg/kg, iv. The format is ADME, organism-based. More on the design: dose 1 mg/kg, route intravenous. The note with it: in vivo.
A short description of data set [4]: Half life in Sprague-Dawley rat at 1 mg/kg, iv and 2 mg/kg, po. The format is ADME, organism-based. The note with it: in vivo.
A short description of data set [5]: Volume of distribution in Sprague-Dawley rat at 1 mg/kg, iv and 2 mg/kg, po. The format is ADME, organism-based. The note with it: in vivo.
The nature of data set [6]: Clearance in Sprague-Dawley rat at 1 mg/kg, iv and 2 mg/kg, po. The note with it: in vivo. The format is ADME, organism-based.
A short description of data set [7]: Cmax in Sprague-Dawley rat at 1 mg/kg, iv and 2 mg/kg, po. The format is ADME, organism-based. The note with it: in vivo.
The nature of data set [8]: Oral bioavailability in Sprague-Dawley rat at 2 mg/kg. The format is ADME, organism-based. The following applies: in vivo.

These results are taken from ChEMBL document CHEMBL2029294, “Evaluation of endo- and exo-aryl-substitutions and central scaffold modifications on diphenyl substituted alkanes as 5-lipoxygenase activating protein inhibitors” (Bioorg Med Chem Lett, 2012).

The term IC50 denotes the concentration at which inhibition is half-maximal. Take `COC(=O)c1ccc(OCc2ccc3ccccc3n2)cc1C1(c2ccccc2)CCCC1`: the half-inhibitory concentration (IC50) in data set [1] stood at 3700 nM; in data set [2] it was 8.5 nM.
In the same order, the values of `Nc1nnc(-c2ccc(OCc3ccc4ccccc4n3)cc2[C@]2(c3ccccc3)C[C@H]3CC[C@H]2C3)o1` (racemic) are 258 nM and 2.2 nM.
Regarding `FC(F)n1nnc(-c2ccc(OCc3ccc4ccccc4n3)cc2[C@]2(c3ccccc3)C[C@H]3CC[C@H]2C3)n1` (racemic), the IC50 was 502 nM in data set [1] and 2.4 nM in data set [2].
On the same counts, the results for `O=C(Nc1cccnc1)c1ccc(OCc2ccc3ccccc3n2)cc1[C@]1(c2ccccc2)C[C@H]2CC[C@H]1C2` (racemic) are 2160 nM and 5.8 nM.
As to `COC(=O)c1ccc(OCc2ccc3ccccc3n2)cc1C1(c2ccccc2)C2CCC1CC2` (centres undefined), the IC50 in data set [1] turned out to be 1300 nM; in data set [2], 5.6 nM.
In the same order, the values of `COC(=O)c1ccc(OCc2ccc3ccccc3n2)cc1[C@]1(c2ccccc2F)C[C@H]2CC[C@H]1C2` (racemic) are 1600 nM and 4 nM.
In the same order, the values of `COC(=O)c1ccc(OCc2ccc3ccccc3n2)cc1[C@]1(c2cc(C)cc(C)c2)C[C@H]2CC[C@H]1C2` (racemic) are 2300 nM and 3.5 nM.
Broadly, the half-life is how long it takes for the measured level to halve. In general, Cmax refers to the peak of the concentration-time curve. A word on the bioavailability: it is the share of a dose that reaches the circulation, judged against a reference dose that is usually intravenous. Low readings indicate poor availability, high ones good availability. `CC(C)(C)[C@@H](c1ccccc1)c1cc(OCc2ccc3ccccc3n2)ccc1-c1n[nH]c(=O)o1` gave an AUC/dose in data set [3] of 0.34 µM·kg·h/mg. This compound also had a half-life in data set [4] of 258 min. Also, in data set [5], the Vd stood at 5.3 L/kg. Moreover, the IC50 in data set [1] was 534 nM; in data set [2], 1.9 nM. In data set [6], the clearance was 29 mL/min/kg. This compound also gave a Cmax in data set [7] of 250 nM. Also, in data set [8], the bioavailability came out at 27%.
As to `COC(=O)c1ccc(OCc2ccc3ccccc3n2)cc1[C@]1(c2cc(F)cc(F)c2)C[C@H]2CC[C@H]1C2` (racemic), the IC50 in data set [1] was 1320 nM; in data set [2], 3.4 nM.
Turning to `COc1cccc([C@]2(c3cc(OCc4ccc5ccccc5n4)ccc3-c3n[nH]c(=O)o3)C[C@H]3CC[C@H]2C3)c1`, the AUC/dose in data set [3] worked out at 0.79 µM·kg·h/mg. In data set [4], this compound gave a half-life of 72 min. Further, the Vd in data set [5] was found to be 0.7 L/kg. Further, the half-inhibitory concentration (IC50) in data set [1] worked out at 375 nM; in data set [2], 1.1 nM. This compound showed a clearance in data set [6] of 7.2 mL/min/kg. The same compound gave a peak concentration (Cmax) in data set [7] of 670 nM. In data set [8], the bioavailability came out at 17%.
In the case of `Cc1nnc(-c2ccc(OCc3ccc4ccccc4n3)cc2[C@]2(c3ccccc3)C[C@H]3CC[C@H]2C3)o1` (racemic), the 50% inhibitory concentration (IC50) in data set [1] was 456 nM; in data set [2], 5 nM.
On the same counts, the results for `c1ccc([C@@]2(c3cc(OCc4ccc5ccccc5n4)ccc3-c3nnn[nH]3)C[C@H]3CC[C@H]2C3)cc1` (racemic) are 5720 nM and 2.9 nM.
On the same counts, the results for `COC(=O)c1ccc(OCc2ccc3ccccc3n2)cc1[C@]1(c2cccc(C)c2)C[C@H]2CC[C@H]1C2` (racemic) are 940 nM and 5.5 nM.
In data set [3], `CC1(C)CC(c2ccccc2)(c2cc(OCc3ccc4ccccc4n3)ccc2-c2n[nH]c(=O)o2)C1` displayed an AUC/dose of 0.05 µM·kg·h/mg. This compound also gave a half-life in data set [4] of 102 min. In data set [5], this compound returned a Vd of 7.5 L/kg. Besides, the IC50 in data set [1] was found to be 834 nM; in data set [2], 3.6 nM. The compound further returned a clearance in data set [6] of 71 mL/min/kg. This compound also displayed a Cmax in data set [7] of 10 nM. The compound also registered a bioavailability in data set [8] of 9%.
Turning to `COC(=O)c1ccc(OCc2ccc3ccccc3n2)cc1C1(c2ccccc2)CCC1`, the values for the half-inhibitory concentration (IC50) in data set [1] and in data set [2] were greater than 7000 nM and 20 nM, respectively.
In data set [3], `O=c1[nH]nc(-c2ccc(OCc3ccc4ccccc4n3)cc2[C@@]2(c3ccccc3)C[C@H]3CC[C@H]2C3)o1` showed an AUC/dose of 0.58 µM·kg·h/mg. In data set [4], this compound gave a half-life of 60 min. Besides, in data set [5], the Vd is 1 L/kg. Further, the results for the half-inhibitory concentration (IC50) in data set [1] and in data set [2] were 469 nM and 0.8 nM, respectively. For the same compound, the clearance in data set [6] amounted to 7.3 mL/min/kg. In data set [7], this compound registered a Cmax of 400 nM. Further, the bioavailability in data set [8] was 12%.
In the case of `COC(=O)c1ccc(OCc2ccc3ccccc3n2)cc1C1(c2ccccc2)CC(C)(C)C1`, the results for the 50% inhibitory concentration (IC50) in data set [1] and in data set [2] were 1400 nM and 5.2 nM, respectively.
On the same counts, the results for `COC(=O)c1ccc(OCc2ccc3ccccc3n2)cc1[C@]1(c2ccc(F)cc2)C[C@H]2CC[C@H]1C2` (racemic) are 1400 nM and 9.5 nM.
Consider `COC(=O)c1ccc(OCc2ccc3ccccc3n2)cc1C1(c2ccccc2)CCCCC1`, for which the IC50 amounted to 1560 nM in data set [1] and 15 nM in data set [2].
In the same order, the values of `CCn1nnc(-c2ccc(OCc3ccc4ccccc4n3)cc2[C@]2(c3ccccc3)C[C@H]3CC[C@H]2C3)n1` (racemic) are 177 nM and 2.4 nM.
In the same order, the values of `O=C(c1ccc(OCc2ccc3ccccc3n2)cc1[C@]1(c2ccccc2)C[C@H]2CC[C@H]1C2)N1CCCC1` (racemic) are 1730 nM and 7.1 nM.
On the same counts, the results for `COC(=O)c1ccc(OCc2ccc3ccccc3n2)cc1[C@]1(c2ccccc2)C[C@H]2CC[C@H]1C2` (racemic) are 460 nM and 2.1 nM.
Turning to `COC(=O)c1ccc(OCc2ccc3ccccc3n2)cc1C1(c2ccccc2)CC(F)(F)C1`, the 50% inhibitory concentration (IC50) is greater than 9000 nM in data set [1] and 50 nM in data set [2].
For the compound `CC1CC(c2ccccc2)(c2cc(OCc3ccc4ccccc4n3)ccc2-c2n[nH]c(=O)o2)C1` (mixture of isomers), the AUC/dose in data set [3] is 0.19 µM·kg·h/mg. In data set [4], this compound showed a half-life of 120 min. This compound displayed a Vd in data set [5] of 3.1 L/kg. For the same compound, the half-inhibitory concentration (IC50) in data set [1] is 695 nM; in data set [2], 2.6 nM. For the same compound, the clearance in data set [6] is 32 mL/min/kg. The compound also gave a Cmax in data set [7] of 120 nM. In addition, the bioavailability in data set [8] amounted to 17%.
Turning to `COC(=O)c1ccc(OCc2ccc3ccccc3n2)cc1C(CC(C)(C)C)c1ccccc1` (racemic), the 50% inhibitory concentration (IC50) in data set [1] worked out at 2000 nM; in data set [2], 3 nM.
In the same order, the values of `c1ccc([C@@]2(c3cc(OCc4ccc5ccccc5n4)ccc3-c3ncon3)C[C@H]3CC[C@H]2C3)cc1` (racemic) are 721 nM and 5.4 nM.
On the same counts, the results for `S=c1[nH]nc(-c2ccc(OCc3ccc4ccccc4n3)cc2[C@]2(c3ccccc3)C[C@H]3CC[C@H]2C3)o1` (racemic) are 753 nM and 1.1 nM.
On the same counts, the results for `c1ccc([C@@]2(c3cc(OCc4ccc5ccccc5n4)ccc3-c3nnco3)C[C@H]3CC[C@H]2C3)cc1` (racemic) are 376 nM and 2.9 nM.
With `O=c1[nH]nc(-c2ccc(OCc3ccc4ccccc4n3)cc2[C@]2(c3ccccc3)C[C@H]3CC[C@H]2C3)o1` (racemic), the IC50 in data set [1] is 796 nM; in data set [2] it was 2.5 nM.
In the same order, the values of `Cn1nnc(-c2ccc(OCc3ccc4ccccc4n3)cc2[C@]2(c3ccccc3)C[C@H]3CC[C@H]2C3)n1` (racemic) are 313 nM and 2.8 nM.
In the same order, the values of `O=C(NC1CCCC1)c1ccc(OCc2ccc3ccccc3n2)cc1[C@]1(c2ccccc2)C[C@H]2CC[C@H]1C2` (racemic) are 964 nM and 48 nM.
On the same counts, the results for `COC(=O)c1ccc(OCc2ccc3ccccc3n2)cc1[C@]1(c2cccc(OC)c2)C[C@H]2CC[C@H]1C2` (racemic) are 322 nM and 2.5 nM.
As for `CC(C)n1nnc(-c2ccc(OCc3ccc4ccccc4n3)cc2[C@]2(c3ccccc3)C[C@H]3CC[C@H]2C3)n1` (racemic), the figures for the IC50 in data set [1] and in data set [2] were 149 nM and 1.7 nM, respectively.
Regarding `COC(=O)c1ccc(OCc2ccc3ccccc3n2)cc1[C@]1(c2cccc(F)c2)C[C@H]2CC[C@H]1C2` (racemic), the 50% inhibitory concentration (IC50) in data set [1] came to 472 nM; in data set [2], 2.3 nM.
In the same order, the values of `COC(=O)c1ccc(OCc2ccc3ccccc3n2)cc1[C@]1(c2cccc(C(F)(F)F)c2)C[C@H]2CC[C@H]1C2` (racemic) are greater than 8600 nM and 7.4 nM.
In the same order, the values of `COC(=O)c1ccc(OCc2ccc3ccccc3n2)cc1C(c1ccccc1)C(C)(C)C` (racemic) are 670 nM and 5.5 nM.
In the same order, the values of `COC(=O)c1ccc(OCc2ccc3ccccc3n2)cc1C(C)(C)c1ccccc1` are greater than 9000 nM and 58 nM.
On to `Cc1noc(-c2ccc(OCc3ccc4ccccc4n3)cc2[C@]2(c3ccccc3)C[C@H]3CC[C@H]2C3)n1` (racemic), for which the figures for the 50% inhibitory concentration (IC50) in data set [1] and in data set [2] were 1020 nM and 6.3 nM, respectively.
In the case of `COC(=O)c1ccc(OCc2ccc3ccccc3n2)cc1C(c1ccccc1)C1CCCCC1` (racemic), the IC50 was greater than 9000 nM in data set [1] and 16 nM in data set [2].
In the same order, the values of `COC(=O)c1ccc(OCc2ccc3ccccc3n2)cc1C1(c2ccccc2)CC(C)C1` (centres undefined) are 1100 nM and 3.2 nM.
For the compound `Cc1nc(-c2ccc(OCc3ccc4ccccc4n3)cc2[C@]2(c3ccccc3)C[C@H]3CC[C@H]2C3)no1` (racemic), the concentration for half-maximal inhibition (IC50) was found to be 189 nM in data set [1] and 1.6 nM in data set [2].
In the same order, the values of `CCC(CC)(c1ccccc1)c1cc(OCc2ccc3ccccc3n2)ccc1C(=O)OC` are greater than 9000 nM and 96 nM.
